Experimental data from patent publication US20150037394A1, “DRUG DELIVERY FORMULATIONS” (King's College London, priority 2011, published 2015).
Where a name gives a salt, the structure may show the parent alone.

Columns and labels:
[1] = Visually determined saturated solubility in various solvents; format: physicochemical
Procedure: The solubility experiments were performed by weighing 0.5±0.05 g of each excipient into glass vials (28 mL). The API (5.0±0.5 mg) was weighed by difference on a plastic weigh boat and transferred into the corresponding vial. […] Once saturation was achieved the mg/g API to solvent ratio was recorded.

[2] = http://www.drugbank.ca/; cited from earlier work
[3] = literature sources; sildenafil base value marked experimentally determined; cited from earlier work
[4] = after 15 minutes exposure to an infrared bulb; cited from earlier work

Visually determined saturated solubility ([1]; Solvent Arlasolve DMI) | Visually determined saturated solubility ([1]; Solvent Diethyl Ether) | Visually determined saturated solubility ([1]; Solvent EtOH) | Visually determined saturated solubility ([1]; Solvent IPA) | Visually determined saturated solubility ([1]; Solvent Isoamyl Alcohol) | Visually determined saturated solubility ([1]; Solvent MeOH) | Visually determined saturated solubility ([1]; Solvent PEG-400) | Visually determined saturated solubility ([1]; Solvent PG) | Visually determined saturated solubility ([1]; Solvent Phenoxyethanol) | Visually determined saturated solubility ([1]; Solvent Transcutol P) | SMILES | Log P [2] | mg/ml figure listed among physicochemical properties (solubility) [3] | Fold increase in permeation [4]
<0.29 mg/g | <0.54 mg/g | <0.35 mg/g | <0.34 mg/g | <0.31 mg/g | 0.29 to 0.62 mg/g | 0.799 to 1.07 mg/g | 1.66 to 2.39 mg/g | 0.54 to 1.08 mg/g | <0.30 mg/g | Nc1nc2c(ncn2COCCO)c(=O)[nH]1 [Acyclovir] | −1.56 |  | 
 |  |  |  |  |  |  |  |  |  | O=C(O)Cc1ccccc1Nc1c(Cl)cccc1Cl [Diclofenac diethyl amine] |  | 4.1 mg/mL | 
57.90 to 110.45 mg/g | 21.28 to 49.89 mg/g | 31.60 to 62.79 mg/g | 29.97 to 58.09 mg/g | 34.25 to 53.55 mg/g | 34.43 to 68.06 mg/g | 28.83 to 51.73 mg/g | 10.15 to 20.50 mg/g | 34.32 to 81.12 mg/g | 108.73 to 162.17 mg/g | O=C(O)Cc1ccccc1Nc1c(Cl)cccc1Cl [Diclofenac free acid] |  |  | 
 |  |  |  |  |  |  |  |  |  | CCCc1nn(C)c2c(=O)[nH]c(-c3cc(S(=O)(=O)N4CCN(C)CC4)ccc3OCC)nc12 [Sildenafil base] |  | < 0.83 mg/mL | 
 |  |  |  |  |  |  |  |  |  | O=[N+]([O-])OCC(CO[N+](=O)[O-])O[N+](=O)[O-] [nitroglycerin] |  |  | 2-3 fold

SMILES | Visually determined saturated solubility ([1]; Solvent Arlasolve DMI) | Visually determined saturated solubility ([1]; Solvent Diethyl Ether) | Visually determined saturated solubility ([1]; Solvent EtOH) | Visually determined saturated solubility ([1]; Solvent IPA) | Visually determined saturated solubility ([1]; Solvent Isoamyl Alcohol) | Visually determined saturated solubility ([1]; Solvent MeOH) | Visually determined saturated solubility ([1]; Solvent PEG-400) | Visually determined saturated solubility ([1]; Solvent PG) | Visually determined saturated solubility ([1]; Solvent Phenoxyethanol) | Visually determined saturated solubility ([1]; Solvent Transcutol P) | Log P [2] | mg/ml figure listed among physicochemical properties (solubility) [3] | Fold increase in permeation [4]
CCCc1nn(C)c2c(=O)[nH]c(-c3cc(S(=O)(=O)N4CCN(C)CC4)ccc3OCC)nc12 [Sildenafil citrate] | <0.88 mg/g | <0.90 mg/g | 0.54 to 1.06 mg/g | <1.27 mg/g | <0.45 mg/g | 6.60 to 10.02 mg/g | 3.85 to 6.32 mg/g | 1.90 to 2.86 mg/g | 6.56 to 9.88 mg/g | 2.14 to 2.85 mg/g |  |  | 
